Results from patent US6323203A, “Composition and method for treating diabetes” (Beyer; Camille F., priority 2000, dated 2001).

How the values were obtained:
[1] = test system: cutaneous vasomotor reaction of blush area; assay: Cutaneous vasomotor response (and tolerability) after a single oral dose in 8 male volunteers; assay type: in vivo, human; conditions: single oral dose, 900 mg PZG
Experimental: (§1) Eight male nonsmoking subjects aged 24-32 participated. They were normal by history, physical exam and routine laboratory analysis of blood and urine.
(§2) This was a single-blind, three-phase crossover study beginning after a 10-hour fast at 8 a.m., designated time 0 (control), when the first venipuncture occurred. In phase I, three capsules of lactose were given orally, followed by venipunctures 2 and 4 h later. In phase II, 1 week later, after a control blood specimen drawn at 8 a.m., PZG (900 mg) was given orally and blood specimens taken 2 and 4 h thereafter. In phase III, 3 weeks later, after a control blood specimen drawn at 8 a.m., PZA (300 mg) was given orally and blood specimens taken 2 and 4 h later.
Comparisons of mean serum or plasma concentrations ±SD during placebo, PZG and PZA phases are presented in Table 1 for glucose, insulin, C-peptide, free fatty acids and norepinephrine. Comparisons of mean serum or plasma concentrations ±SD during these three phases are presented in Table 2 for triglycerides, VLDL, LDL, HDL, total cholesterol, fibrinogen and serum PZG and PZA concentrations. Note the close agreement of serum PZG and PZA concentrations at 2 h and also at 4 h after their administration. Table 3 compares mean serum or plasma concentrations ±SD of renin, angiotensin I, adlosterone, potassium, urea and uric acid during the three phases of the study. […] In an earlier pilot experiment to determine serum PZA concentrations following different PZA doses, a first subject ([…]) after a single oral dose of 300 mg PZA developed unexpectedly a typical cutaneous vasomotor reaction of their blush area which included flushed, warm skin of face, neck and shoulders with a mild rash for about 90 min. […] They described the reaction variously as warm redness or flushed head and neck, rash and itching (Table 4). These reactions, which were graded from 6 (most severe) to 0 (not observed), lasted from 30 min in 3 subjects to 4 h in 1 subject. […] No significant correlation occurred between score of reaction (effect+duration) and PZA peak blood concentration among the subjects (r=0.281) (Table 4).
^1 Score = warm + redness (flush) + rash + itching + duration. Duration
as 0.5 h, 1, 2, 4 h (reaction and duration as noted).

[2] = Serum concentration of PZG or PZA after single oral dose in the crossover study; assay type: in vivo; conditions: human, 900 mg, 8 normal subjects
Experimental: as §1, §2
(§3) Each phase consisted of taking three capsules, each containing 300 mg. In phase I, all three capsules were of lactose; in phase II, all three were PZG; and in phase III, two capsules were lactose and one PZA. All capsules appeared indistinguishable and were given to each subject who swallowed them with water in the presence of an investigator.
(§4) Once obtained, blood specimens were immediately spun. Refrigerated serum or plasma was analyzed within 24 h for glucose, insulin, electrolytes, blood urea nitrogen, creatinine, liver function tests, triglycerides, total cholesterol, high-density lipoprotein (HDL) cholesterol, low-density lipoprotein (LDL) cholesterol, very-low-density lipoprotein (VLDL) cholesterol, free fatty acids, and fibrinogen.

[3] = Single-blind, three-phase crossover study of single oral doses: blood analyses of metabolic, hormonal and electrolyte parameters in 8 normal male subjects; assay type: in vivo, human; conditions: for Free fatty acids, mean / Angiotensin I, mean / Renin, mean / C-peptide, mean / Potassium, mean / Uric acid, mean / Aldosterone, mean / Insulin, mean / Urea, mean / VLDL Cholesterol, mean / Norepinephrine, mean / HDL Cholesterol, mean / Glucose, mean / Triglycerides, mean / LDL Cholesterol, mean / Total cholesterol, mean / Fibrinogen, mean: 8 normal subjects; for Free fatty acids, mean: 0 h: PZG 0.47, PZA 0.51; for Angiotensin I, mean: 0 h: PZG 0.84, PZA 0.66; for Renin, mean: 0 h: PZG 1.0, PZA 1.5; for C-peptide, mean: 0 h: PZG 1.1, PZA 1.2; for Potassium, mean: 0 h: PZG 4.2, PZA 4.0; for Uric acid, mean: 0 h: PZG 6.0, PZA 5.6; for Aldosterone, mean: 0 h: PZG 8.6, PZA 13.6; for Insulin, mean: 0 h: PZG 8.8, PZA 5.4; for Urea, mean: 0 h: PZG 17, PZA 17; for VLDL Cholesterol, mean: 0 h: PZG 20, PZA 17; for Norepinephrine, mean: 0 h: PZG 37, PZA 75; for HDL Cholesterol, mean: 0 h: PZG 41, PZA 46; for Glucose, mean: 0 h: PZG 87, PZA 84; for Triglycerides, mean: 0 h: PZG 101, PZA 86; for LDL Cholesterol, mean: 0 h: PZG 107, PZA 104; for Total cholesterol, mean: 0 h: PZG 168, PZA 167; for Fibrinogen, mean: 0 h: PZG 266, PZA 293
Experimental: A three-phase study, where single oral doses of placebo, followed in one week by 900 mg of pyrazinoylguanidine (PZG), followed in three weeks by 300 mg of pyrazinoic acid (PZA), involving normal male subjects, was carried out to compare and contrast metabolic effects of single doses of PZG and PZA. A purpose of the study was to determine whether the metalbolic effects observed after 3 and also 21 days of PZG administration in patients with renal disease or with diabetes also occurred after a single oral dose. […]
as §1, §2, §3, §4
Repeated measures of analysis of variance were used to compare each subject's placebo, PZG and PZA phase. Two-tailed Student t-tests were performed between groups. All results are reported as means ±SD. Statistical significance was considered when p<0.05. The results are illustrated in Tables 1-4.

[4] = 4 h after single oral dose (PZG 900 mg, PZA 300 mg)
[5] = 2 h after single oral dose (PZG 900 mg, PZA 300 mg)

- concentration at 2 h ([2]; 2 h after single oral dose (PZG 900 mg, PZA 300 mg), read-out: Serum concentration of PZG or PZA, mean): 5100 ng/mL
- concentration at 4 h [2, 4]: 3000 ng/mL
- Potassium, mean [3, 5]: 4.5 meg/l
- Uric acid, mean [3, 5]: 6.0 mg/dL
- Potassium, mean [3, 4]: 4.3 meg/l
- Uric acid, mean [3, 4]: 6.2 mg/dL
- effect on potassium blood concentrations ([3]; single oral dose, within 4 h): not changed
SMILES: NC(N)=NC(=O)c1cnccn1 [PZG, pyrazinoylguanidine]
- adverse reactions [1]: no adverse reaction
- tolerability [1]: well tolerated
- Free fatty acids, mean [3, 5]: 0.20 meq/l
- Angiotensin I, mean [3, 5]: 0.86 ng/ml per h
- Renin, mean [3, 5]: 1.2 ng/ml per h
- C-peptide, mean [3, 5]: 0.9 ng/mL
- Aldosterone, mean [3, 5]: 10.0 ng/dL
- Insulin, mean [3, 5]: 6.2 μlU/ml
- Urea, mean [3, 5]: 17 mg/dL
- VLDL Cholesterol, mean [3, 5]: 18 mg/dL
- Norepinephrine, mean [3, 5]: 53 pg/mL
- HDL Cholesterol, mean [3, 5]: 42 mg/dL
- Glucose, mean [3, 5]: 84 mg/dL
- Triglycerides, mean [3, 5]: 91 mg/dL
- LDL Cholesterol, mean [3, 5]: 107 mg/dL
- Total cholesterol, mean [3, 5]: 167 mg/dL
- Fibrinogen, mean [3, 5]: 273 mg/dL
- Free fatty acids, mean [3, 4]: 0.19 meq/l
- Angiotensin I, mean [3, 4]: 1.0 ng/ml per h
- Renin, mean [3, 4]: 1.8 ng/ml per h
- C-peptide, mean [3, 4]: 0.6 ng/mL
- Aldosterone, mean [3, 4]: 9.5 ng/dL
- Insulin, mean [3, 4]: 3.4 μlU/ml
- Urea, mean [3, 4]: 16 mg/dL
- VLDL Cholesterol, mean [3, 4]: 16 mg/dL
- Norepinephrine, mean [3, 4]: 113 pg/mL
- HDL Cholesterol, mean [3, 4]: 42 mg/dL
- Glucose, mean [3, 4]: 80 mg/dL
- Triglycerides, mean [3, 4]: 79 mg/dL
- LDL Cholesterol, mean [3, 4]: 113 mg/dL
- Total cholesterol, mean [3, 4]: 171 mg/dL
- Fibrinogen, mean [3, 4]: 273 mg/dL
